From patent US10844051B2, “Substituted oxazoles for the treatment of cancer” (THE ROYAL INSTITUTION FOR THE ADCANCEMENT OF …, priority 2015, dated 2020)
Each block holds one molecule with its values, some of them ahead of it.

Assays:
Assay type in all cases: cell-based
[1] = system: phosphorylation of ERK in HCT-116 cells; assay: Western blot, phosphorylation of ERK in HCT-116 cells; details: 10 μM, 24 hours
Method: HCT-116 cells were exposed to DMSO vehicle or compounds at designated doses for 24 hours.

human GATA3 = target: T1, human GATA3 (Homo sapiens, UniProt P23771); assay: GATA3-dependent reporter assay in IHH cells; details: 48 hours, 10 μM
T1 construct: expressed in transfected cells; host or cells: IHH
T1 sequence (P23771 whole entry): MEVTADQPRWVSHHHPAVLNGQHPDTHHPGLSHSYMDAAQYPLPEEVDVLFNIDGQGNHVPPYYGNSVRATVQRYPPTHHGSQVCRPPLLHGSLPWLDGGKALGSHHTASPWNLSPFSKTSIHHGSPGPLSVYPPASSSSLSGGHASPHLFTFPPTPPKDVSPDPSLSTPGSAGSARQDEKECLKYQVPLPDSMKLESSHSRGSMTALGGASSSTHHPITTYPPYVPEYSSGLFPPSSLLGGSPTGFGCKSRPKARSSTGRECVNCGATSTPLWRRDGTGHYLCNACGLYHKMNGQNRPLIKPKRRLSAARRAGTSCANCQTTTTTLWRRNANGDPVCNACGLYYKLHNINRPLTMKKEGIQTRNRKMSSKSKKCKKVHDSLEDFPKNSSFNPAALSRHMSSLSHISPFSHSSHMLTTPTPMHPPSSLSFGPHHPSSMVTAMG
Method: The IHH cells were transiently transfected with empty vector (for the NT) or human GATA3-expressing plasmid as well as pRL-TK (internal control) and GATA-Luc reporter plasmids. Cells were exposed to DMSO vehicle or compounds for 48 hours. Experiments were done in triplicate.

ETV1 = target: T2, ETV1 (Homo sapiens, UniProt P50549); assay: ETV1-dependent reporter assay in HEK293 cells; details: 48 hours
T2 construct: expressed in transfected cells; host or cells: HEK293
T2 sequence (P50549 1-477): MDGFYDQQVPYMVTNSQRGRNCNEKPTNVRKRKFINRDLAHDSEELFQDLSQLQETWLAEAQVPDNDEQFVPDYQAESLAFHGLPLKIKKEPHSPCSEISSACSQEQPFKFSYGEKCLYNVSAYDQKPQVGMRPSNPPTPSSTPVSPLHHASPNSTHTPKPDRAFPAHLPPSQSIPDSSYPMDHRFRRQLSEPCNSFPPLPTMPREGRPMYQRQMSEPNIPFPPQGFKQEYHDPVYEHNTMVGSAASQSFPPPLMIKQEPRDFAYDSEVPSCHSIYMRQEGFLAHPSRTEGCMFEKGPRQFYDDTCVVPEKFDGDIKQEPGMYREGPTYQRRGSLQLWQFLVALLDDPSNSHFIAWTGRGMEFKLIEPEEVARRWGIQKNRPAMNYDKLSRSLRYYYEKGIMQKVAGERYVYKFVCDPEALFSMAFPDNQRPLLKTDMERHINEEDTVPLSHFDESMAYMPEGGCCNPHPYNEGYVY
Method: (§1) HEK293 cells were transiently transfected with empty vector (for the NT) or ERG-expressing plasmid as well as pRL-TK (internal control) and PUx3-Luc reporter. Cells were then exposed to DMSO vehicle or compounds at designated doses for 48 hours. Experiments were done in triplicate.
Experiments were done as described above in FIG. 1.1a) except that ERG plasmid was replaced by ETV1 plasmid.

human GATA2 = target: T3, human GATA2 (Homo sapiens, UniProt P23769); assay: GATA2-dependent reporter assay in IHH cells; details: GATA-Luc reporter, 48 h
T3 construct: expressed in transfected cells; host or cells: IHH
T3 sequence (P23769 1-480): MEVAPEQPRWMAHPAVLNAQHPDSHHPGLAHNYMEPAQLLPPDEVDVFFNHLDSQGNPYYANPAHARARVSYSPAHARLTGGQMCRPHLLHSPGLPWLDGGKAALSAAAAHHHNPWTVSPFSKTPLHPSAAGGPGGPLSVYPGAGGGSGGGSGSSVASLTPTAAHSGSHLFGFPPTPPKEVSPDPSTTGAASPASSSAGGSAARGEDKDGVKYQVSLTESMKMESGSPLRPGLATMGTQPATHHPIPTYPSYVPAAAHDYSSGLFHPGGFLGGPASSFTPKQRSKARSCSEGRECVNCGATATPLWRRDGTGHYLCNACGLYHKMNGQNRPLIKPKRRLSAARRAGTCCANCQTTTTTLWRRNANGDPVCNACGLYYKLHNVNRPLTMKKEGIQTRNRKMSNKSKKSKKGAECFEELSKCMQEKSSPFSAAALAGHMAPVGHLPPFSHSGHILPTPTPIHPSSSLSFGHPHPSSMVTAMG
Method: K7174 is a known GATA2 inhibitor. The IHH cells were transiently transfected with empty vector (for the NT) or human GATA2-expressing plasmid as well as pRL-TK (internal control) and GATA-Luc reporter plasmids. Cells were exposed to DMSO vehicle or compounds for 48 h. Experiments were in triplicate.

ERG = target: T4, ERG (Homo sapiens, UniProt P11308); assay: ERG-dependent reporter assay in HEK293 cells; parameters: expressed in transfected cells; host or cells: HEK293; details: PUx3-Luc reporter, 48 hours, designated doses
T4 sequence (P11308 1-486 isoform P11308-3): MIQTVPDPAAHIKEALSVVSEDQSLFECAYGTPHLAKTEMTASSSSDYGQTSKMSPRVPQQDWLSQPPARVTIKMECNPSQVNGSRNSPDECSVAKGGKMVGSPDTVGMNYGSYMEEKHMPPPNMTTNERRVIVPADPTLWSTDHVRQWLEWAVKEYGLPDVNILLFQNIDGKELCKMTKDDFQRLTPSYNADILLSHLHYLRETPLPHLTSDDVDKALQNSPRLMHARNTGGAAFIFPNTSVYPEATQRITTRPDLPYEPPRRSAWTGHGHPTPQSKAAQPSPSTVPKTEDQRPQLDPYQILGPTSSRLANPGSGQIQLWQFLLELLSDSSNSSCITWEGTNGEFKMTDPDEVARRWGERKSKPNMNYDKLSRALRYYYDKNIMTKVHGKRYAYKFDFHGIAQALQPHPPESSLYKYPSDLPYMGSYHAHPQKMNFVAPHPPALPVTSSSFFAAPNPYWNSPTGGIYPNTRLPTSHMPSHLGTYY
Method: as §1

mouse STING (mSTING) = target: T5, mouse STING (mSTING) (Mus musculus, UniProt Q3TBT3); assay: mSTING ISRE-luc reporter assay in 293T cells; details: 24 hours
T5 construct: expressed in transfected cells; host or cells: 293T
T5 sequence (Q3TBT3 1-378): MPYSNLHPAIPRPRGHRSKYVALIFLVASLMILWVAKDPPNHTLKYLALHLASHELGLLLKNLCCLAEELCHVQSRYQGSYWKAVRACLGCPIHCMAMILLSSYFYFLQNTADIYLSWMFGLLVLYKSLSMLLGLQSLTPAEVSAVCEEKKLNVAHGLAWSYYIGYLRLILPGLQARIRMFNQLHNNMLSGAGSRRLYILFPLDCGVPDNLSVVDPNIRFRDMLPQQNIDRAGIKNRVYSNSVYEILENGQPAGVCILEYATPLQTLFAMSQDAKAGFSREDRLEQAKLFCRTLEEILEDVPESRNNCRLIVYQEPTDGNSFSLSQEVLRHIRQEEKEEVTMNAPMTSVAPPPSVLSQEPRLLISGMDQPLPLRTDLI
Method: ISRE-luc (reporter), pRL-TK (internal control) and mSTING-expressing plasmids were transiently transfected into 293T cells. Cells were exposed to DMSO vehicle control or compounds for 24 hours. Experiments were done in triplicate.

human STING (hSTING) = target: T6, human STING (hSTING) (Homo sapiens, UniProt Q86WV6); assay: hSTING ISRE-luc reporter assay in 293T cells; details: 24 hours
T6 construct: expressed in transfected cells; host or cells: 293T
T6 sequence (Q86WV6 whole entry H232R): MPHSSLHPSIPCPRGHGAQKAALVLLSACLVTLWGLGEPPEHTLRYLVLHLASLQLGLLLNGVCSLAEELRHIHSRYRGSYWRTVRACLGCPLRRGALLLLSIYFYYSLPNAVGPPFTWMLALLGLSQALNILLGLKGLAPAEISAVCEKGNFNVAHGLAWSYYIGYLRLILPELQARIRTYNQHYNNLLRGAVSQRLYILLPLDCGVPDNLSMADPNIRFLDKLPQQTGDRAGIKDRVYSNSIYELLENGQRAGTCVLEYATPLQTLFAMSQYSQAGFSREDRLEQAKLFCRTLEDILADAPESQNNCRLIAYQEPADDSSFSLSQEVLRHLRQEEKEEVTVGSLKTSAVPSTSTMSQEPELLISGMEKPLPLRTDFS
Method: ISRE-luc (reporter), pRL-TK (internal control) and hSTING-expressing plasmids were transiently transfected into 293T cells. Cells were exposed to DMSO vehicle control or compounds for 24 hours. Experiments were done in triplicate.

[2] = system: phosphorylation of ERK in Panc 10.05 cells; assay: Western blot, phosphorylation of ERK in Panc 10.05 cells; details: 10 μM, 24 hours
Method: C-PARP, cleaved PARP. Panc10.05 cells were exposed to DMSO vehicle or compounds at designated doses for 24 hours.
Panc10.05 cells were exposed to DMSO vehicle or compounds at designated doses for 24 hours.

[3] = system: interferon signaling pathway in THP-1 cells; assay: Western blot, interferon signaling in THP-1 cells; details: 16 hours
Method: THP1 cells were treated for 16 hours with the indicated concentration (μM) of compounds or DMSO vehicle control. Whole-cell extracts were prepared and subjected to Western blot analysis with the antibodies as indicated.

hSTING and/or mSTING = assay: hSTING- or mSTING-dependent ISRE-luc reporter assay in 293T cells; details: 24 hours
Method: ISRE-luc (reporter), pRL-TK (internal control) and hSTING- or mSTING-expressing plasmids were transiently transfected into 293T cells. Cells were exposed to DMSO vehicle control or compounds for 24 hours. Experiments were done in triplicate.

Compound: OC1(c2cccc(C(F)(F)F)c2)CCN(Cc2nc(-c3cccc(F)c3)c(-c3cccc(F)c3)[nH]2)CC1 [Compound 1209]
suppression of phosphorylation of ERK (Western blot) [1]: potently suppressed phosphorylation of ERK

activity against GATA3 in GATA3-dependent reporter assay (human GATA3): inactive against GATA3 | ETV1 inhibition in ETV1-dependent reporter assay (ETV1): ETV1 inhibitors | GATA2 inhibition in GATA2-dependent reporter assay (human GATA2): GATA2 inhibitors | ERG inhibition in ERG-dependent reporter assay (ERG): ERG inhibitors
Compound: Oc1cccc(-c2nc(CCc3c[nH]c4ccccc34)oc2-c2cccc(O)c2)c1 [Compound 675]

activation of mSTING in ISRE-luc reporter assay (mouse STING (mSTING)): activate mouse STING (mSTING) | activation of hSTING in ISRE-luc reporter assay (human STING (hSTING)): activate human STING (hSTING)
Compound: COc1cccc(-c2nc(CCCc3c[nH]c4ccccc34)oc2-c2cccc(OC)c2)c1 [Compound 640]

Compound: COc1ccc(CC/C(=C/C(=O)N2CCC(O)(c3cccc(C(F)(F)F)c3)CC2)c2ccccc2)cc1F [Compound 1200]
suppression of phosphorylation of ERK (Western blot) [2]: potently suppressed phosphorylation of ERK

activation of mSTING in ISRE-luc reporter assay (mouse STING (mSTING)): activate mouse STING (mSTING) | activation of hSTING in ISRE-luc reporter assay (human STING (hSTING)): activate human STING (hSTING)
Compound: FC(F)(F)c1cccc(-c2nc(CCCc3c[nH]c4ccccc34)oc2-c2cccc(C(F)(F)F)c2)c1 [Compound 681]

GATA2 inhibition in GATA2-dependent reporter assay (human GATA2): GATA2 inhibitors | activation of hSTING in ISRE-luc reporter assay (human STING (hSTING)): activate hSTING
Compound: Fc1cccc(-c2oc(CCCc3c[nH]c4ccccc34)nc2-c2ccco2)c1 [Compound 834]
activation of interferon signaling pathway (Western blot) [3]: activate interferon signaling pathway

Compound: c1ccc(CN2CCN(Cc3nc(-c4ccccc4)c(-c4ccccc4)o3)CC2)cc1 [Compound 1176]
activation of hSTING and/or mSTING in ISRE-luc reporter assay (hSTING and/or mSTING): activate hSTING and/or mSTING | activation of hSTING and/or mSTING in ISRE-luc reporter assay (hSTING and/or mSTING; 10 μM): activate hSTING and/or mSTING | activation of interferon signaling pathway (Western blot) [3]: activate interferon signaling pathway

activation of mSTING in ISRE-luc reporter assay (mouse STING (mSTING)): activate mouse STING (mSTING) | activation of hSTING in ISRE-luc reporter assay (human STING (hSTING)): activate human STING (hSTING)
Compound: Fc1cccc(-c2nc(CCc3c[nH]c4ccccc34)oc2-c2cccc(F)c2)c1 [Compound 761]
activation of interferon signaling pathway (Western blot) [3]: activate interferon signaling pathway

Compound: Fc1cccc(-c2nc(CN3CCC(c4noc5ccccc45)CC3)[nH]c2-c2cccc(F)c2)c1 [Compound 1100]
suppression of phosphorylation of ERK (Western blot) [2]: potently suppressed phosphorylation of ERK | activation of hSTING and/or mSTING in ISRE-luc reporter assay (hSTING and/or mSTING): activate hSTING and/or mSTING

Compound: COc1cccc(N2CCN(C(=O)C/C(=C/Cc3ccc(OC)c(F)c3)c3ccccc3)CC2)c1 [Compound 1237]
suppression of phosphorylation of ERK (Western blot) [1]: potently suppressed phosphorylation of ERK | suppression of phosphorylation of ERK (Western blot) [2]: potently suppressed phosphorylation of ERK

activation of mSTING in ISRE-luc reporter assay (mouse STING (mSTING)): activate mouse STING (mSTING) | activation of hSTING in ISRE-luc reporter assay (human STING (hSTING)): activate human STING (hSTING)
Compound: FC(F)(F)c1ccc(-c2nc(CCCc3c[nH]c4ccccc34)oc2-c2ccc(C(F)(F)F)cc2)cc1 [Compound 672]

GATA2 inhibition in GATA2-dependent reporter assay (human GATA2): GATA2 inhibitors | activation of hSTING in ISRE-luc reporter assay (human STING (hSTING)): activate hSTING
Compound: COc1cccc(-c2oc(CCCc3c[nH]c4ccccc34)nc2-c2ccco2)c1 [Compound 840]
activation of interferon signaling pathway (Western blot) [3]: activate interferon signaling pathway

Compound: Fc1cccc(-c2nc(CNCCc3c[nH]c4ccccc34)[nH]c2-c2cccc(F)c2)c1 [Compound 874]
activation of hSTING and/or mSTING in ISRE-luc reporter assay (hSTING and/or mSTING): activate hSTING and/or mSTING | activation of hSTING and/or mSTING in ISRE-luc reporter assay (hSTING and/or mSTING; 10 μM): activate hSTING and/or mSting | activation of interferon signaling pathway (Western blot) [3]: activate interferon signaling pathway

Compound: COc1ccc(CC/C(=C/C(=O)N2CCC(O)(c3ccccc3)CC2)c2ccc(Cl)cc2)cc1F [Compound 1306]
suppression of phosphorylation of ERK (Western blot) [1]: potently suppressed phosphorylation of ERK

Compound: N#CCN(CCc1c[nH]c2ccccc12)Cc1nc(-c2ccccc2)c(-c2ccccc2)[nH]1 [Compound 1187]
suppression of phosphorylation of ERK (Western blot) [1]: potently suppressed phosphorylation of ERK | suppression of phosphorylation of ERK (Western blot) [2]: potently suppressed phosphorylation of ERK
